These results are taken from US20040002052A1, “Systems and methods for rapid evaluation and design of molecules for predicted biological activity” (priority 2001, published 2004).

Experiment [1] concerns estrogenic activity. The experiment can be described thus: uterotrophic assays (estrogenic bioactivity). The format is in vivo. As to conditions: compared with estradiol.
For experiment [2], the system named is estrogenic activity. As to conditions: Medicinal Chemistry Research 10:440-455, 2001; cited from earlier work.

Molecules are shown by their SMILES. Entries after “also recorded” stand apart in the source; their conditions may differ.

`CO[C@H]1C[C@]2(C)[C@@H](O)CC[C@H]2[C@H]2[C@H]1c1ccc(O)cc1C[C@H]2C` [PDC-7, 11β-Methoxy-7α-Methylestradiol]: the “biological potency in uterotrophic assays / estrogenic activity” value in the experiment with estrogenic activity [1] is “improved biological potency over estradiol; also recorded: potent estrogenic activity”. For the same compound, the “estrogenic bioactivity compared with estradiol” value with estrogenic activity [2] was “greater estrogenic bioactivity than estradiol”.
